Reference: patent US20250143933A1, “ENDOSCOPIC, PERCUTANEOUS AND OTHER METHODS FOR DISSOLUTION OF PANCREATIC NECROSIS” (The Johns Hopkins University, priority 2021, published 2025)

Tests used:
[1] = cited from earlier work
[2] = concentrations higher than 30%; cited from earlier work
[3] = previous attempts, literature; cited from earlier work
[4] = Ex vivo dissolution of solid WON debris by candidate debridement compounds; parameters: species or system human
Procedure: To perform preliminary proof-of-concept testing, solid WON debris was collected from seven patients undergoing endoscopic necrosectomy. […] Several candidate compounds that might be suitable, alone or in combination, for WON debris dissolution were identified. The candidate debridement compounds were tested on ex vivo samples to assess their capacity for dissolving WON debris.

Molecule: [O][Cl+][O-] [Chlorine dioxide, reference compound]
- Effect compared to 5.8% NaOCl ([1]; chlorine dioxide 13.8%): shown to be similar

Molecule: OO [Hydrogen peroxide, reference compound]
- Toxicity (local damage) [2]: shown to be toxic
- Success as chemical dissolution agent to aid endoscopic necrosectomy [3]: minimal success

Molecule: OCl [NaOCl, Sodium hypochlorite]
- Solvent properties in WON samples ([4]; ex vivo, concentration of 5% (FIG. 4)): excellent solvent properties
- Time to breakdown of human pancreas necrosis debris ([4]; petri dish, dilute sodium hypochlorite 2.5% (FIG. 4)): within minutes
- Pulp dissolution ([1]; 8.25% NaOCl, dental surgery studies (Cullen et al., 2015)): rapid pulp dissolution

Molecule: CC(C)=O [acetone, reference compound]
- Effect on WON debris (dissolution) ([4]; ex vivo samples from patients undergoing endoscopic necrosectomy, lipophilic solvent): minimal to no effect

Molecule: streptokinase: previously tried chemical dissolution agent to aid endoscopic necrosectomy
- Success as chemical dissolution agent to aid endoscopic necrosectomy [3]: minimal success

Molecule: tissue plasminogen activator: previously tried chemical dissolution agent to aid endoscopic necrosectomy
- Success as chemical dissolution agent to aid endoscopic necrosectomy [3]: minimal success
